Reference: PubChem BioAssay AID256 (DTP/NCI, 2004)
“And” between values parts separate entries of the source, which are not always exact repeats. Identical values can stand only once. Inconclusive results and toxic doses are left out.

Test system: CD2F1 mice, L1210 leukemia ip, survival T/C
Test: NCI In Vivo Anticancer Drug Screen. Data for tumor model L1210 Leukemia (intraperitoneal) in CD2F1 (CDF1) mice
Conditions: higher = longer survival
Method in brief: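 In this screen, transplantable tumors were grown in mice given either the compound or its vehicle. Results were expressed as the treated measurement relative to the control measurement.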

[1] = endpoint: mean survival time, dose: 100.0 mg/kg/injection, schedule: Q01DX009 (ip), vehicle: saline with Tween-80
[2] = endpoint: mean survival time, dose: 200.0 mg/kg/injection, schedule: Q01DX009 (ip), vehicle: saline with Tween-80
[3] = endpoint: mean survival time, dose: 400.0 mg/kg/injection, schedule: Q01DX009 (ip), vehicle: saline with Tween-80
[4] = endpoint: mean survival time, dose: 100.0 mg/kg/injection, schedule: Q01DX001 (ip), vehicle: saline
[5] = endpoint: mean survival time, dose: 200.0 mg/kg/injection, schedule: Q01DX001 (ip), vehicle: saline
[6] = endpoint: mean survival time, dose: 400.0 mg/kg/injection, schedule: Q01DX001 (ip), vehicle: saline

## CCOc1ccc(Nc2cc(=O)[nH]c(=O)[nH]2)cc1
endpoint: mean survival time, dose: 100.0 mg/kg/injection, schedule: Q01DX001 (ip), vehicle: saline with Tween-80
  T/C: 95 % of control
endpoint: mean survival time, dose: 200.0 mg/kg/injection, schedule: Q01DX001 (ip), vehicle: saline with Tween-80
  T/C: 93 % of control
endpoint: mean survival time, dose: 400.0 mg/kg/injection, schedule: Q01DX001 (ip), vehicle: saline with Tween-80
  T/C: 95 % of control

## Cc1cc(-n2cccc2)no1
[1]
  T/C: 98 % of control
[2]
  T/C: 107 % of control
[3]
  T/C: 94 % of control

## C[Si](C)(C)Oc1cccc(O[Si](C)(C)C)c1
[1]
  T/C: 92 % of control
[2]
  T/C: 94 % of control
[3]
  T/C: 87 % of control

## COc1ccccc1N=Nc1c(O)n(-c2ccccc2Cl)c(=S)n(-c2ccccc2OC)c1=O
endpoint: mean survival time, dose: 25.0 mg/kg/injection, schedule: Q04DX002 (ip), vehicle: saline with Tween-80
  T/C: 105 % of control
endpoint: mean survival time, dose: 50.0 mg/kg/injection, schedule: Q04DX002 (ip), vehicle: saline with Tween-80
  T/C: 90 % of control
endpoint: mean survival time, dose: 100.0 mg/kg/injection, schedule: Q04DX002 (ip), vehicle: saline with Tween-80
  T/C: 94 % of control

## CO[C@H]1Nc2c(ccc(C)c2O)C(=O)N2C=C(/C=C/C(N)=O)C[C@@H]12
endpoint: mean survival time, dose: 0.1 mg/kg/injection, schedule: Q01DX015 (ip), vehicle: saline
  T/C: 111 % of control
endpoint: mean survival time, dose: 0.2 mg/kg/injection, schedule: Q01DX015 (ip), vehicle: saline
  T/C: 119 % of control
endpoint: mean survival time, dose: 0.25 mg/kg/injection, schedule: Q01DX009 (ip), vehicle: saline sonified
  T/C: 106 % of control
endpoint: mean survival time, dose: 0.36 mg/kg/injection, schedule: Q01DX015 (ip), vehicle: saline
  T/C: 120 % of control
endpoint: mean survival time, dose: 0.5 mg/kg/injection, schedule: Q01DX009 (ip), vehicle: saline sonified
  T/C: 104 % of control
endpoint: mean survival time, dose: 1.0 mg/kg/injection, schedule: Q01DX009 (ip), vehicle: saline sonified
  T/C: 91 % of control
endpoint: mean survival time, dose: 1.0 mg/kg/injection, schedule: Q04DX003 (ip), vehicle: saline with Tween-80
  T/C: 117 % of control
endpoint: mean survival time, dose: 1.5 mg/kg/injection, schedule: Q04DX003 (ip), vehicle: saline with Tween-80
  T/C: 118 % of control
endpoint: mean survival time, dose: 25.0 micrograms/kg/injection, schedule: Q01DX009 (ip), vehicle: saline with Tween-80
  T/C: 108 % of control
endpoint: mean survival time, dose: 50.0 micrograms/kg/injection, schedule: Q01DX009 (ip), vehicle: saline with Tween-80
  T/C: 117 % of control
endpoint: mean survival time, dose: 100.0 micrograms/kg/injection, schedule: Q01DX009 (ip), vehicle: saline with Tween-80
  T/C: 109 % of control
endpoint: mean survival time, dose: 200.0 micrograms/kg/injection, schedule: Q01DX009 (ip), vehicle: saline with Tween-80
  T/C: 117 % of control
endpoint: median survival time, dose: 0.01 mg/kg/injection, schedule: Q01DX005 (ip), vehicle: DMSO
  T/C: 102 % of control
endpoint: median survival time, dose: 0.02 mg/kg/injection, schedule: Q01DX005 (ip), vehicle: DMSO
  T/C: 117 % of control
endpoint: median survival time, dose: 0.04 mg/kg/injection, schedule: Q01DX005 (ip), vehicle: DMSO
  T/C: 118 % of control

## NCc1cn(C2OC(CO)C(O)C2O)c2nc[nH]c(=O)c12 (stereo not drawn)
endpoint: mean survival time, dose: 25.0 mg/kg/injection, schedule: Q01DX009 (ip), vehicle: distilled water + Tween-80
  T/C: 103 % of control
endpoint: mean survival time, dose: 50.0 mg/kg/injection, schedule: Q01DX009 (ip), vehicle: distilled water + Tween-80
  T/C: 103 % of control
endpoint: mean survival time, dose: 100.0 mg/kg/injection, schedule: Q01DX009 (ip), vehicle: distilled water + Tween-80
  T/C: 101 % of control
endpoint: mean survival time, dose: 200.0 mg/kg/injection, schedule: Q01DX009 (ip), vehicle: distilled water + Tween-80
  T/C: 98 % of control
endpoint: mean survival time, dose: 400.0 mg/kg/injection, schedule: Q01DX009 (ip), vehicle: distilled water + Tween-80
  T/C: 115 % of control

## CCOC(=O)C(Cc1ccc(C)cc1)P(=O)(OCC)OCC (stereo not drawn)
[4]
  T/C: 102 % of control
[5]
  T/C: 98 % of control
[6]
  T/C: 102 % of control

## NC(N)=NS(=O)(=O)c1ccc(NCc2c3ccccc3nc3ccccc23)cc1
endpoint: median survival time, dose: 50.0 mg/kg/injection, schedule: Q01DX005 (ip), vehicle: Klucel (hydroxypropylcellulose) (HPC)
  T/C: 150 % of control
endpoint: median survival time, dose: 172.8 mg/kg/injection, schedule: Q01DX005 (ip), vehicle: Klucel (hydroxypropylcellulose) (HPC)
  T/C: 178 % of control
endpoint: median survival time, dose: 200.0 mg/kg/injection, schedule: Q01DX005 (ip), vehicle: Klucel (hydroxypropylcellulose) (HPC)
  T/C: 153 % of control
endpoint: median survival time, dose: 400.0 mg/kg/injection, schedule: Q01DX005 (ip), vehicle: Klucel (hydroxypropylcellulose) (HPC)
  T/C: 172 % of control
endpoint: median survival time, dose: 480.0 mg/kg/injection, schedule: Q01DX005 (ip), vehicle: Klucel (hydroxypropylcellulose) (HPC)
  T/C: 150 % of control
endpoint: median survival time, dose: 800.0 mg/kg/injection, schedule: Q01DX005 (ip), vehicle: Klucel (hydroxypropylcellulose) (HPC)
  T/C: 178 % of control and 182 % of control
endpoint: median survival time, dose: 1333.33 mg/kg/injection, schedule: Q01DX005 (ip), vehicle: Klucel (hydroxypropylcellulose) (HPC)
  T/C: 187 % of control

## CC1(C(=O)O)OCCO1
endpoint: mean survival time, dose: 100.0 mg/kg/injection, schedule: Q04DX003 (ip), vehicle: saline
  T/C: 97 % of control
endpoint: mean survival time, dose: 200.0 mg/kg/injection, schedule: Q04DX003 (ip), vehicle: saline
  T/C: 103 % of control
endpoint: mean survival time, dose: 400.0 mg/kg/injection, schedule: Q04DX003 (ip), vehicle: saline
  T/C: 96 % of control

## Cc1sc(Cc2ccccc2)nc1-c1ccc(N=Cc2ccc(N(CCOS(C)(=O)=O)CCOS(C)(=O)=O)cc2)cc1
endpoint: mean survival time, dose: 25.0 mg/kg/injection, schedule: Q01DX009 (ip), vehicle: saline with Tween-80
  T/C: 107 % of control
endpoint: mean survival time, dose: 50.0 mg/kg/injection, schedule: Q01DX009 (ip), vehicle: saline with Tween-80
  T/C: 93 % of control

## CC([NH-])CC[NH-].O=C(O)C(=O)O.[Pt+2] (stereo not drawn)
endpoint: mean survival time, dose: 3.12 mg/kg/injection, schedule: Q04DX003 (ip), vehicle: saline with Tween-80
  T/C: 152 % of control
endpoint: mean survival time, dose: 6.25 mg/kg/injection, schedule: Q04DX003 (ip), vehicle: saline with Tween-80
  T/C: 235 % of control
endpoint: mean survival time, dose: 12.5 mg/kg/injection, schedule: Q04DX003 (ip), vehicle: saline with Tween-80
  T/C: 265 % of control

## CC(C)N1C(=O)N(Cl)C2C1N(Cl)C(=O)N2Cl (stereo not drawn)
endpoint: median survival time, dose: 1.5 mg/kg/injection, schedule: Q01DX009 (ip), vehicle: saline with Tween-80
  T/C: 101 % of control
endpoint: median survival time, dose: 3.0 mg/kg/injection, schedule: Q01DX009 (ip), vehicle: saline with Tween-80
  T/C: 102 % of control
endpoint: median survival time, dose: 6.0 mg/kg/injection, schedule: Q01DX009 (ip), vehicle: saline with Tween-80
  T/C: 93 % of control
endpoint: median survival time, dose: 12.0 mg/kg/injection, schedule: Q01DX009 (ip), vehicle: saline with Tween-80
  T/C: 103 % of control
endpoint: median survival time, dose: 24.0 mg/kg/injection, schedule: Q01DX009 (ip), vehicle: saline with Tween-80
  T/C: 104 % of control
endpoint: median survival time, dose: 25.0 mg/kg/injection, schedule: Q01DX009 (ip), vehicle: saline with Tween-80
  T/C: 100 % of control

## O=C(Nc1cccnc1)c1ccc([N+](=O)[O-])s1
endpoint: mean survival time, dose: 50.0 mg/kg/injection, schedule: Q01DX005 (ip), vehicle: saline + alcohol
  T/C: 111 % of control
endpoint: mean survival time, dose: 50.0 mg/kg/injection, schedule: Q01DX005 (ip), vehicle: saline
  T/C: 110 % of control
endpoint: mean survival time, dose: 100.0 mg/kg/injection, schedule: Q01DX005 (ip), vehicle: saline + alcohol
  T/C: 121 % of control
endpoint: mean survival time, dose: 100.0 mg/kg/injection, schedule: Q01DX005 (ip), vehicle: saline
  T/C: 160 % of control
endpoint: mean survival time, dose: 200.0 mg/kg/injection, schedule: Q01DX005 (ip), vehicle: saline + alcohol
  T/C: 107 % of control
endpoint: mean survival time, dose: 200.0 mg/kg/injection, schedule: Q01DX005 (ip), vehicle: saline
  T/C: 122 % of control
endpoint: median survival time, dose: 25.0 mg/kg/injection, schedule: Q01DX005 (ip), vehicle: saline
  T/C: 119 % of control
endpoint: median survival time, dose: 36.0 mg/kg/injection, schedule: Q01DX005 (ip), vehicle: saline
  T/C: 115 % of control
endpoint: median survival time, dose: 50.0 mg/kg/injection, schedule: Q01DX005 (ip), vehicle: saline
  T/C: 116 % of control
endpoint: median survival time, dose: 60.0 mg/kg/injection, schedule: Q01DX005 (ip), vehicle: saline
  T/C: 121 % of control

## CCC(C)C#N (stereo not drawn)
endpoint: mean survival time, dose: 5.0 mg/kg/injection, schedule: Q01DX009 (ip), vehicle: saline with Tween-80
  T/C: 98 % of control
endpoint: mean survival time, dose: 5.0 mg/kg/injection, schedule: Q04DX003 (ip), vehicle: saline
  T/C: 97 % of control
endpoint: mean survival time, dose: 10.0 mg/kg/injection, schedule: Q01DX009 (ip), vehicle: saline with Tween-80
  T/C: 100 % of control
endpoint: mean survival time, dose: 10.0 mg/kg/injection, schedule: Q04DX003 (ip), vehicle: saline
  T/C: 103 % of control
endpoint: mean survival time, dose: 20.0 mg/kg/injection, schedule: Q01DX009 (ip), vehicle: saline with Tween-80
  T/C: 94 % of control
endpoint: mean survival time, dose: 20.0 mg/kg/injection, schedule: Q04DX003 (ip), vehicle: saline
  T/C: 103 % of control

## CC(=O)CCCN(CCO)CCO
[4]
  T/C: 103 % of control
[5]
  T/C: 93 % of control
[6]
  T/C: 101 % of control

## Nc1nc2c(ncn2-c2cccc(C(F)(F)F)c2)c(=O)[nH]1
endpoint: mean survival time, dose: 100.0 mg/kg/injection, schedule: Q04DX003 (ip), vehicle: saline with Tween-80
  T/C: 94 % of control
endpoint: mean survival time, dose: 200.0 mg/kg/injection, schedule: Q04DX003 (ip), vehicle: saline with Tween-80
  T/C: 89 % of control
endpoint: mean survival time, dose: 400.0 mg/kg/injection, schedule: Q04DX003 (ip), vehicle: saline with Tween-80
  T/C: 92 % of control
